For ten compounds, DC50 results are on record in US12187816B2, “Macrocyclic compounds and methods of use thereof” (Genentech, Inc., priority 2020, dated 2025).

Starred links: 1 amine or outer side, 2 acyl side, 3 side chain; linkers in the order of their positions; H or OH if unused. Non-standard residues stand in square brackets, D forms with d. Residues, ends and D or L forms follow the SMILES beside them. *: point of attachment. JQ1acid = Cc1sc2c(c1C)C(c1ccc(Cl)cc1)=N[C@@H](CC(=O)*)c1nnc(C)n1-2; X9 = O=C(C[C@@H](Cc1ccc(-c2ccccc2)cc1)N[*:1])[*:2]; dBip = N[C@H](Cc1ccc(-c2ccccc2)cc1)C(=O)O; Ile(3-Me) = CCC(C)(C)[C@H](N)C(=O)O; Hyp = O=C(O)[C@@H]1C[C@@H](O)CN1; Tle = CC(C)(C)[C@H](N)C(=O)O; X8 = CN(CCOCC(=O)[*:2])[*:1]; dDap = NC[C@@H](N)C(=O)O; Ahp = NCCCCCCC(=O)O; Ahx = NCCCCCC(=O)O; AEA = NCCOCC(=O)O; GABA = NCCCC(=O)O; βAla = NCCC(=O)O

As usually defined, the DC50 is the concentration at which degradation of the target reaches its halfway point.

The assay deals with T1, BRD4 (Homo sapiens, UniProt O60885).
T1 construct: Mean 488 intensity of BRD4 quantitated in nuclear region; endogenous in cells; host or cells: EoL-1 eosinophilic leukemia cells
The experiment in a line: BRD4 degradation assay in EOL1 cells (immunofluorescence imaging). It is filed as cell-based. The conditions noted are these: EoL-1 eosinophilic leukemia cells, 4 hours treatment, nuclear BRD4 immunofluorescence. Put shortly:
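EoL-1 cells treated 4 h at 37 °C with 20-point 1/3 serial dilutions (0.2% DMSO) in RPMI/10% FBS, then fixed and immunostained for BRD4. Mean nuclear BRD4 intensity measured by high-content imaging, with Hoechst nuclear masking. DMSO and no-primary-antibody controls define 0 and 100%; DC50 and maximal effect from dose-response fit.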
In the case of `Cc1sc2c(c1C)C(c1ccc(Cl)cc1)=N[C@@H](CC(=O)NC[C@H]1NC(=O)[C@@H](C)NC(=O)[C@@H](Cc3ccc(-c4ccccc4)cc3)NC(=O)[C@@H]3C[C@@H](O)CN3C(=O)[C@H](C(C)(C)C)n3cc(nn3)COCCNC1=O)c1nnc(C)n1-2` [Compound 56], the 50% degradation concentration (DC50) is less than 0.05 µM.

In turn, `CCC(C)(C)[C@@H]1NC(=O)COCCNC(=O)[C@@H](CNC(=O)C[C@@H]2N=C(c3ccc(Cl)cc3)c3c(sc(C)c3C)-n3c(C)nnc32)NC(=O)[C@@H](C)NC(=O)[C@@H](Cc2ccc(-c3ccccc3)cc2)NC(=O)[C@@H]2C[C@@H](O)CN2C1=O` [Compound 57] (cyclo([AEA][Ile(3-Me)][Hyp][dBip][dA][dDap](JQ1acid))) gave a DC50 of less than 0.05 µM.

For the compound `Cc1sc2c(c1C)C(c1ccc(Cl)cc1)=N[C@@H](CC(=O)NC[C@H]1NC(=O)[C@@H](C)NC(=O)[C@@H](Cc3ccc(-c4ccccc4)cc3)NC(=O)[C@@H]3C[C@@H](O)CN3C(=O)[C@H](C(C)(C)C)NC(=O)COCCNC1=O)c1nnc(C)n1-2` [Compound 58] (cyclo([AEA][Tle][Hyp][dBip][dA][dDap](JQ1acid))), the DC50 was less than 0.05 µM.

Compound `Cc1sc2c(c1C)C(c1ccc(Cl)cc1)=N[C@@H](CC(=O)NC[C@H]1NC(=O)[C@@H](C)NC(=O)[C@@H](Cc3ccc(-c4ccccc4)cc3)NC(=O)[C@@H]3C[C@@H](O)CN3C(=O)[C@H](C(C)(C)C)NC(=O)CCCNC1=O)c1nnc(C)n1-2` [Compound 59] (cyclo([GABA][Tle][Hyp][dBip][dA][dDap](JQ1acid))) yielded a 50% degradation concentration (DC50) of less than 1 µM.

In turn, `Cc1sc2c(c1C)C(c1ccc(Cl)cc1)=N[C@@H](CC(=O)NC[C@H]1NC(=O)[C@@H](C)NC(=O)[C@@H](Cc3ccc(-c4ccccc4)cc3)NC(=O)[C@@H]3C[C@@H](O)CN3C(=O)[C@H](C(C)(C)C)NC(=O)CCCCCNC1=O)c1nnc(C)n1-2` [Compound 60] (cyclo([Ahx][Tle][Hyp][dBip][dA][dDap](JQ1acid))) yielded a 50% degradation concentration (DC50) of less than 0.05 µM.

As to `Cc1sc2c(c1C)C(c1ccc(Cl)cc1)=N[C@@H](CC(=O)NC[C@H]1NC(=O)[C@@H](C)NC(=O)[C@@H](Cc3ccc(-c4ccccc4)cc3)NC(=O)[C@@H]3C[C@@H](O)CN3C(=O)[C@H](C(C)(C)C)NC(=O)CCCCCCNC1=O)c1nnc(C)n1-2` [Compound 61] (cyclo([Ahp][Tle][Hyp][dBip][dA][dDap](JQ1acid))), the DC50 is less than 0.05 µM.

Take `Cc1sc2c(c1C)C(c1ccc(Cl)cc1)=N[C@@H](CC(=O)NC[C@H]1NC(=O)CCNC(=O)[C@@H](Cc3ccc(-c4ccccc4)cc3)NC(=O)[C@@H]3C[C@@H](O)CN3C(=O)[C@H](C(C)(C)C)NC(=O)COCCNC1=O)c1nnc(C)n1-2` [Compound 62] (cyclo([AEA][Tle][Hyp][dBip][βAla][dDap](JQ1acid))): the half-maximal degradation concentration (DC50) was less than 1 µM.

For the compound `Cc1sc2c(c1C)C(c1ccc(Cl)cc1)=N[C@@H](CC(=O)NC[C@H]1NC(=O)[C@@H](C)NC(=O)[C@@H](Cc3ccc(-c4ccccc4)cc3)NC(=O)[C@@H]3C[C@@H](O)CN3C(=O)[C@H](C(C)(C)C)NC(=O)COCCN(C)C1=O)c1nnc(C)n1-2` [Compound 63] (cyclo([Hyp][dBip][dA][dDap](JQ1acid)[X8][Tle])), the DC50 was less than 0.05 µM.

For `Cc1sc2c(c1C)C(c1ccc(Cl)cc1)=N[C@@H](CC(=O)NC[C@H]1NC(=O)CNC(=O)C[C@@H](Cc3ccc(-c4ccccc4)cc3)NC(=O)[C@@H]3C[C@@H](O)CN3C(=O)[C@H](C(C)(C)C)NC(=O)COCCNC1=O)c1nnc(C)n1-2` [Compound 64] (cyclo([AEA][Tle][Hyp][X9]G[dDap](JQ1acid))), the half-maximal degradation concentration (DC50) is greater than 20 µM.

For the compound `Cc1sc2c(c1C)C(c1ccc(Cl)cc1)=N[C@@H](CC(=O)NC[C@H]1NC(=O)[C@@H](C)NC(=O)C[C@@H](Cc3ccc(-c4ccccc4)cc3)NC(=O)[C@@H]3C[C@@H](O)CN3C(=O)[C@H](C(C)(C)C)NC(=O)COCCNC1=O)c1nnc(C)n1-2` [Compound 65] (cyclo([AEA][Tle][Hyp][X9][dA][dDap](JQ1acid))), the DC50 is greater than 20 µM.
